Data: ChEMBL document CHEMBL1201862, “PubChem BioAssay data set” (2004)
Calls of active or inactive are those of the source.

Tests used:
[1] = Late stage assay provider results from the probe development effort to identify inhibitors of the Plasmodium falciparum M18 Aspartyl Aminopeptidase (M18AAP): radiolabel-based cell-based dose response assay to identify compounds that inhibit P. falciparum growth in RBCs, Set 2..; assay type: functional
Paired box protein Pax-8 = Paired box protein Pax-8 (Homo sapiens, UniProt Q06710); experiment: inhibitors of PAX8-driven TPO luciferase reporter, dose response, RMG-I cells, cherry-pick (AID 687027); assay type: functional, cell-based;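 further: luciferase reporter driven by Pax8 target thyroperoxidase promoter measured by SteadyGlo luminescence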
Sequence of Paired box protein Pax-8 (Q06710 whole entry): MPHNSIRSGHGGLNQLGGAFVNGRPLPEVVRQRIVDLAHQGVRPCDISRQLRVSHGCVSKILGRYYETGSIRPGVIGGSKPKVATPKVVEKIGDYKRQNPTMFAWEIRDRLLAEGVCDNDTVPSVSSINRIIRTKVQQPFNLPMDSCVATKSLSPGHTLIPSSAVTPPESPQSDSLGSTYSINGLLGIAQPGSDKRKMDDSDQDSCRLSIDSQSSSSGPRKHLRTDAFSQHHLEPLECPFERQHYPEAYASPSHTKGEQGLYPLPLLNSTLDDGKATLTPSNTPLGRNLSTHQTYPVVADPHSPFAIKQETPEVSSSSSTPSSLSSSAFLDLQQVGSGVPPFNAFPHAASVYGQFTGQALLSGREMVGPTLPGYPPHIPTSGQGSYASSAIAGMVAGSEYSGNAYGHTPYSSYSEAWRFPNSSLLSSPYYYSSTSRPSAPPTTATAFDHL

[2] = cytotoxicity in OVCAR8 ovarian cancer cells, dose response, PAX8 project, cell-based, plate reader, dry powder samples (AID 743197); assay type: functional; settings: OVCAR-8
[3] = IGROV1 ovarian cancer cell cytotoxicity, dose response, PAX8 inhibitor project, plate reader, dry powder samples (AID 743043); assay type: functional, cell-based; settings: IGROV-1
[4] = NIH:OVCAR-3 ovarian cancer cell cytotoxicity, dose response, PAX8 inhibitor project, plate reader, dry powder samples (AID 743044); assay type: functional, cell-based
[5] = non-specific cell cytotoxicity, dose response, cytotoxicity control for PAX8 inhibitor project, plate reader, dry powder samples (AID 743021); assay type: functional, cell-based
[6] = A2780 ovarian cancer cell cytotoxicity, dose response, cytotoxicity control, plate reader, dry powder samples (AID 743046); assay type: functional, cell-based
[7] = HepG2 cell cytotoxicity, dose response, cytotoxicity control, ATP luminescence, cherry-pick, set 6 (AID 1053125); assay type: functional, cell-based
Protein RecA = target: T1, Protein RecA (Mycobacterium tuberculosis, UniProt P9WHJ3); experiment: Fluorescence Cell-Free Homogeneous Dose Retest to Identify Inhibitors of RecA-Intein Splicing Activity. [Related pubchem assays (depositor defined):AID2097, AID2223, AID489010, AID492950]; assay type: functional
T1 sequence (P9WHJ3 whole entry): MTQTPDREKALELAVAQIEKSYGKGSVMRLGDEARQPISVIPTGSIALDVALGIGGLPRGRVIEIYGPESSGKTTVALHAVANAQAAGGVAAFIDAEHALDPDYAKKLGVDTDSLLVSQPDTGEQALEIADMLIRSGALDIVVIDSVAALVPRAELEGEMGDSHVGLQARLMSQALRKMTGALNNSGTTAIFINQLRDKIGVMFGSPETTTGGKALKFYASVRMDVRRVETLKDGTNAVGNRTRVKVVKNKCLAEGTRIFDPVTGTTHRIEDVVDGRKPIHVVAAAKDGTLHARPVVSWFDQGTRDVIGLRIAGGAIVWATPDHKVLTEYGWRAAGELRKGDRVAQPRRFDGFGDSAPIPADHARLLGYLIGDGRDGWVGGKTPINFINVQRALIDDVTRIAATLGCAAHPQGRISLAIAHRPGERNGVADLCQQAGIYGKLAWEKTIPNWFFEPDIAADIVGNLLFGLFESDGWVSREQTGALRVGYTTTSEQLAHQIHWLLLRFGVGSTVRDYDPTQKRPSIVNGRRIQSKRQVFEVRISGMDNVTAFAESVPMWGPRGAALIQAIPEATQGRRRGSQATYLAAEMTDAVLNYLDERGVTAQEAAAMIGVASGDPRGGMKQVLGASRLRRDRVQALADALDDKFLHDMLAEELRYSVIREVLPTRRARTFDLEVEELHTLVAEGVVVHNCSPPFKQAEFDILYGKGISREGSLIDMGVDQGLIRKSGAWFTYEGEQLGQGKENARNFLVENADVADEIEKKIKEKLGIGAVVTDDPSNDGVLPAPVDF

[8] = target: T2, Sentrin-specific protease 8 (Homo sapiens, UniProt Q96LD8); assay type: functional
T2 sequence (Q96LD8 whole entry): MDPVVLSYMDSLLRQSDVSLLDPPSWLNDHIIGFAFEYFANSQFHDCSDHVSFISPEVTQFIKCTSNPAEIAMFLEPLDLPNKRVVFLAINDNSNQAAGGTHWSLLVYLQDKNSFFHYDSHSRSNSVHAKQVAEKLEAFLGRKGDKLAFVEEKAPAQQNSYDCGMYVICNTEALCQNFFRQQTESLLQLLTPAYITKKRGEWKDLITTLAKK

[9] = target: T3, Replicative DNA helicase DnaB (Mycobacterium tuberculosis, UniProt P9WMR3); experiment: DnaB intein splicing inhibitors, dose response, biochemical, cell-free fluorescence (AID 449749); assay type: functional
T3 sequence (P9WMR3 whole entry): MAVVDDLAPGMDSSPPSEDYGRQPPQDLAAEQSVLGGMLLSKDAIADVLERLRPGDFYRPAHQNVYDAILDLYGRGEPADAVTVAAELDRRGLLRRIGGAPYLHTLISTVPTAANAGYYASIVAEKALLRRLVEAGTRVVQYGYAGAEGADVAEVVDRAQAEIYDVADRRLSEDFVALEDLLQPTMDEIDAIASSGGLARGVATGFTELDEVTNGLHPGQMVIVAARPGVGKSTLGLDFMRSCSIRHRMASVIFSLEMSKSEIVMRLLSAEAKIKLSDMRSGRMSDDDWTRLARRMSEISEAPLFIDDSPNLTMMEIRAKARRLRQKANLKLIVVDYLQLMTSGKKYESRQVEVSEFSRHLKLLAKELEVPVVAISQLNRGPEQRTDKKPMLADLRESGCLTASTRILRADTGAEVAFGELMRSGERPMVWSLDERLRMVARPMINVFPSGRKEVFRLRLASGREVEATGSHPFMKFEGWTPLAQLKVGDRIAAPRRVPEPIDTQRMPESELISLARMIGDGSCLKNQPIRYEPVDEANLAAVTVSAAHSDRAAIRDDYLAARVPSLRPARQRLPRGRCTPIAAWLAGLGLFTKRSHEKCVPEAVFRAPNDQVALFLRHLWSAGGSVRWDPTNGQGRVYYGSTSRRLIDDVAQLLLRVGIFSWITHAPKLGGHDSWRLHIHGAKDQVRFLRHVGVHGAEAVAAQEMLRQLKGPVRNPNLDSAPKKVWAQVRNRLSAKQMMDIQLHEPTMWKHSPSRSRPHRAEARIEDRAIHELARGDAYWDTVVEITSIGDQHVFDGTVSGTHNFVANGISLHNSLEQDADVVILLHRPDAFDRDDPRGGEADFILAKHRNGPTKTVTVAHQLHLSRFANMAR

[10] = target: T2, Sentrin-specific protease 8; assay type: functional; remark: listed apart in the source
BHK-21 = experiment: BHK-21 cell toxicity, dose response, cytotoxicity control, plate reader, cherry-pick samples (AID 687030); assay type: functional, cell-based; settings: Mesocricetus auratus
cells [11] = assay type: functional, cell-based
[12] = target: Nuclear receptor subfamily 0 group B member 1 (Homo sapiens, UniProt P51843); assay type: functional, cell-based;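 further: HEK293T cells transfected with SF-1 and DAX-1 plus StAR promoter luciferase reporter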
Sequence of Nuclear receptor subfamily 0 group B member 1 (P51843 whole entry): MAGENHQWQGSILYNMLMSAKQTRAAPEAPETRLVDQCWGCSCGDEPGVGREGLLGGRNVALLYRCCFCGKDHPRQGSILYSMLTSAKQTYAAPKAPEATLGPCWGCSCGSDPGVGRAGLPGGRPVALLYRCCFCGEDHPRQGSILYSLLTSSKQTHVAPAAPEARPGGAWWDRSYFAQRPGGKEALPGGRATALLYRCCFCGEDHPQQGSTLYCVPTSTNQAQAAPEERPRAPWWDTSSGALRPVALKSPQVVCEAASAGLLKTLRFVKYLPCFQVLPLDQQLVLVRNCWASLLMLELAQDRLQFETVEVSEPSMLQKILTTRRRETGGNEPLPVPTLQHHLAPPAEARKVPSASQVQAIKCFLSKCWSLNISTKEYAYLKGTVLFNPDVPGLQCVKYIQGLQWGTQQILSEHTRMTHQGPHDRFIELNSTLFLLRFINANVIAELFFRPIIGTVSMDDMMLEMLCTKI

[13] = HepG2 cell cytotoxicity, dose response, cytotoxicity control, plate reader, cherry-pick, antagonist series (AID 743416); assay type: functional, cell-based
[14] = MC4R antagonists, dose response, counter-screen for LGR2 antagonist project, cell-based, plate reader, cherry pick (AID 743444); assay type: functional;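 further: transfected HEK 293 cells stimulated with alpha-MSH peptide; potency of inhibitors of the alpha-MSH evoked signal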
[15] = A549 cell cytotoxicity, dose response, cytotoxicity control, plate reader, cherry-pick, antagonist series (AID 743412); assay type: functional, cell-based
[16] = LGR2 antagonists, dose response, cell-based, HEK293, CRE-luciferase reporter, cherry pick (AID 743342); assay type: functional
NS3 = NS3 (Hepatitis C virus, UniProt A3EZJ3); experiment: HCV NS3 helicase inhibitor potency, dose response, biochemical, fluorescence polarization, ChemBridge library (AID 743264)
Sequence of NS3 (A3EZJ3 whole entry): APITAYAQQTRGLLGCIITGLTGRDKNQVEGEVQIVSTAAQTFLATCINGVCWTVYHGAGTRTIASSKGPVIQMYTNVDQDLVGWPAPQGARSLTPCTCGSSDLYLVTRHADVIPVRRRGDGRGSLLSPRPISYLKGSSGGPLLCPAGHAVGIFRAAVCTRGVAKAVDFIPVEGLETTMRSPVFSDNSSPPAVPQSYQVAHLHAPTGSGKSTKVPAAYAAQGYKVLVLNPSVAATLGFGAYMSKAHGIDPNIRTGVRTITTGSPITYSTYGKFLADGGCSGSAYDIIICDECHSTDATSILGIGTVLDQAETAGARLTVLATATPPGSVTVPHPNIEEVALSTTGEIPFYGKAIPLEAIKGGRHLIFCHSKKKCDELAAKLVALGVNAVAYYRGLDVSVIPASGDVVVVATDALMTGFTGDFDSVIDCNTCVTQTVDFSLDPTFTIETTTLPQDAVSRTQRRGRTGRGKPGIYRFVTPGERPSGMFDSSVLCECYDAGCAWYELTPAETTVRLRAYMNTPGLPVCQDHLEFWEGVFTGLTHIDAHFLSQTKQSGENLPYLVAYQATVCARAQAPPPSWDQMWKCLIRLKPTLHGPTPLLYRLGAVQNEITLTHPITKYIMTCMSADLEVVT

Major prion protein = Major prion protein (Homo sapiens, UniProt P04156); assay type: functional, cell-based
cells [17] = experiment: cells
[18] = Counterscreen for antagonists of the human trace amine associated receptor 1 (hTAAR1): Fluorescence-based cell-based high throughput dose response assay to identify nonselective Ga16 antagonists.; assay type: functional
[19] = Counterscreen for […] of the human trace amine associated receptor 1 (TAAR1): Fluorescence-based cell-based high throughput dose response assay to identify nonselective Ga16 agonists.; assay type: functional

## Oc1ccc(C2CCN(c3ccnc4ccccc34)CC2)cc1O
[1]
  IC50: 1.3 µM (active)

## C[C@@H]1CN([C@H](C)CO)C(=O)c2cc(NC(=O)Nc3ccc(C(F)(F)F)cc3)ccc2O[C@@H](C)CCCCO[C@@H]1CN(C)Cc1ccccc1
Paired box protein Pax-8
  AC50: 6.4 µM (active)
[2]
  AC50: 21.5 µM (active)
[3]
  AC50: 40.2 µM (active)
[4]
  AC50: 23 µM (active)
[5]
  AC50: 68 µM (active)
[6]
  AC50: 22.3 µM (active)

## Cc1c(C(=O)NCc2ccc3c(c2)OCCO3)sc(=O)n1Cc1ccccc1F
[7]
  AC50: > 52 µM (inactive)

## Cc1cc(C)nc(N2N=C(C(C)(C)C)CC2=O)n1
Protein RecA
  EC50: 10.9 µM (active)
[8]
  IC50: 12.1 µM (active)
[9]
  AC50: 14.9 µM (active)
[10]
  IC50: 8.2 µM (active)

## CCNC(=O)C[C@H]1CC[C@@H]2[C@H](COC[C@H](O)CN2Cc2ccc(Cl)c(Cl)c2)O1
BHK-21
  AC50: 36.8 µM (active)

## C=C1CCCC2OC(CC3=CC4/C(C)=C/CC(C)CC(/C=C(\C)C(O)C5CC(O)C(O)C(CCC(O)/C=C/C(C)=C/CCC6=NCCC(C3)C64C)O5)OC(=O)CC3OC(C(O)C1)C(O)C3O)CC(O)C2O (centres undefined)
Cells [11]
  IC50: > 67.5 µM (inactive)
[12]
  IC50: > 67.5 µM (inactive)

## C[C@H](CO)N1C[C@H](C)[C@H](CN(C)C(=O)Nc2ccc(C(F)(F)F)cc2)OCCCC[C@H](C)Oc2ccc(NC(=O)NC3CCCCC3)cc2C1=O
[13]
  AC50: > 52 µM (inactive)
[14]
  AC50: 0.898 µM (active)
[15]
  AC50: > 52 µM (inactive)
[16]
  AC50: 8.74 µM (active)

## CC1=C(C#N)c2nc(N)c(C#N)c(C)c2C1=Cc1ccc(-c2cccc(C(=O)O)c2)o1
NS3
  IC50: 143 µM (active)

## c1ccc2sc(Nc3nc4cc5c(cc4s3)OCO5)nc2c1
Major prion protein
  IC50: 8.57 µM (active)
Cells [17]
  IC50: > 138 µM (inactive)

## CC(=O)c1ccc(NC(=O)c2ccc(COc3ccccc3[N+](=O)[O-])o2)cc1
[18]
  IC50: > 29.9 µM (inactive)
[19]
  EC50: > 29.9 µM (inactive)
